Results taken from paper PMC12723162, “Alphaherpesvirus pUL21 homologs use non-canonical sequences to compete with cellular adaptors for protein phosphatase 1 binding” (The Journal of Biological Chemistry, 2025).

Columns and labels:
PP1 regulatory protein = settings: cited from earlier work
Description: HEK 293T cells were co-transfected with pUL21-GFP and WT or mutant Myc-PP1, and lysates were subjected to GFP affinity capture before SDS-PAGE and immunoblott ...

pUL21-GFP = assay: Co-IP of Myc-PP1 with pUL21-GFP; assay type: binding, HSV-1; settings: for Co-IP of Myc-PP1 by pUL21-GFP: HEK 293T cells co-transfected, 24 h, immunoblot, versus WT Myc-PP1; for Abundance of Myc-PP1 in cell lysates: HEK 293T lysates used for IP; for Abundance of Myc-PP1 in cell lysates / Bound:input ratio of Myc-PP1 (effect of mutation): versus WT; for Bound:input ratio of Myc-PP1 (effect of mutation): densitometry, HEK 293T, ∗∗∗p < 0.001
Description: (§1) Bacterial expression plasmids encoding the mouse PP1γ catalytic domain (residues 7–300)-H6 and pUL21-H6, and mammalian expression vectors encoding pUL21(FV242AA)-GFP, pORF38-GFP and pORF38(FV255AA)-GFP, were described previously ([23]). We note that the mouse and human PP1γ catalytic domains share 100% amino acid identity. pORF38-NLT-H6 was generated by sub-cloning residues 1 to 263 of ORF38 into the vector pOPTnH ([52]). pUL21-RVxF-H6 was generated by inserting the mutations A237V and V239F into pUL21-H6 by QuikChange site-directed mutagenesis. Human PP1α was cloned from HeLa cell cDNA into a vector derived from pF5K (Promega) with an N-terminal Myc epitope tag via restriction-based cloning, and point mutations were introduced into Myc-PP1α by QuikChange mutagenesis. A plasmid encoding pUL21-GFP was generated by sub-cloning a codon-optimized synthetic UL21 gene (GeneArt) into pEGFP-N1 (Clontech), yielding an identical pUL21-GFP amino acid sequence as used in ([23]). pUL21-ΔL, -ΔR and -ΔLR were generated from this vector via inverse PCR, and point mutations were introduced via QuikChange mutagenesis.
(§2) Mycoplasma-free human embryonic kidney 293T (HEK 293T) cells (American Type Culture Collection #CRL-3216) were maintained in Dulbecco’s modified Eagle’s medium (DMEM) with high glucose (Merck), supplemented with 10% (v/v) heat-inactivated fetal calf serum and 2 mM L-glutamine (complete DMEM) in a humidified 5% CO2 atmosphere at 37 °C. The identity of the cell line was not independently confirmed.
(§3) Monolayers of HEK 293T cells were transfected with 7.7 μg of DNA per 9 cm dish, using 18 μg/ml 25 kDa branched polyethylenimine (Merck) or using TransIt-LT1 (Mirus) in accordance with the manufacturer’s instructions. Cells were harvested 24 h post-transfection and incubated for 30 min in ice-cold 10 mM Tris pH 7.5, 150 mM NaCl, 0.5 mM EDTA, 0.5% Igepal CA-630 (a.k.a. NP-40), 1% (v/v) EDTA-free protease inhibitor cocktail (Merck) before clarification at 21,000×g for 10 min at 4 °C. Lysate protein concentrations were measured using the bicinchoninic acid (BCA) assay (Pierce) and normalized before affinity capture using GFP-Trap resin (ChromoTek) following the manufacturer’s protocol. Samples were eluted by heating the resin to 95 °C for 5 min in 45 μl 2 × SDS-PAGE loading buffer. Proteins were separated by SDS-PAGE and transferred to 0.45 μm nitrocellulose membranes (PerkinElmer or Cytiva). Membranes were stained with Ponceau S and imaged using a G:Box XX9 (Syngene) before blocking in Tris-buffered saline with 0.1% TWEEN-20 (TBS-T) supplemented with 5% (w/v) non-fat milk powder. Immunoblotting was performed using antibodies diluted in blocking buffer as listed below, and immunoblots were imaged using an Odyssey CLx (LI-COR Biosciences). Densitometry was performed using Image Studio Lite version 5.2 (LI-COR Biosciences), and statistical tests were performed using Prism version 7 (GraphPad).
(§4) The following primary antibodies and dilutions were used for immunoblotting: rabbit anti-CERT 1:10,000 (Abcam #Ab72536), mouse anti-PP1α 1:1000 (Santa Cruz #sc-271762), mouse anti-Myc 1:4000 (Millipore #05–724), rat anti-tubulin (clone YL1/2) hybridoma supernatant 1:40 ([54]). The anti-CERT antibody was validated using a knock-out cell line. The anti-PP1α antibody has been validated by siRNA knockdown ([55]). The anti-Myc antibody was validated using control experiments lacking Myc-tagged transfected constructs ([56]). The anti-tubulin antibody has been validated by immunofluorescence microscopy, immuno-electron microscopy and radiolabeled immunosorbent assay ([54]). Secondary antibodies from LI-COR Biosciences were diluted 1:10,000 as follows: IRDye 680RD goat anti-rat (#926–68029) and goat anti-mouse (#926–68020), or IRDye 800CW goat anti-rabbit (#926–32221).

[1] = target: T1, PP1γ catalytic domain (7–300), C-terminally His6-tagged (Mus musculus, UniProt P63087); assay: Isothermal titration calorimetry (ITC); assay type: binding; set-up: key to KD / ∆H / ∆G / -T∆S / N (sites): –: no binding detected; settings: for -T∆S / N (sites) / ∆G / ∆H / KD: TROPPO peptides; for KD: HEPES pH 8.0, 25 °C
T1 construct: mouse PP1γ catalytic domain (residues 7–300)-H6; made in house; host or cells: E. coli T7 Express lysY/Iq
T1 sequence (P63087 7-300): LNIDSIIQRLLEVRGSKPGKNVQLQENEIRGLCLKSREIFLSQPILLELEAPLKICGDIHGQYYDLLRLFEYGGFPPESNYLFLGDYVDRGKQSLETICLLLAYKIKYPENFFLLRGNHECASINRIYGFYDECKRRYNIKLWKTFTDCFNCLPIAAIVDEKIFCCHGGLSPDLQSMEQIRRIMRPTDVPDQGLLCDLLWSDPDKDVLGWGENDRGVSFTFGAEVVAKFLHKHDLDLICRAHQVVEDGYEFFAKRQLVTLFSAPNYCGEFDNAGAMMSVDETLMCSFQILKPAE
Description: as §1
Proteins were expressed using E. coli T7 Express lysY/I^q cells (New England Biolabs) grown in 2 × TY medium at 37 °C to OD600 0.8 to 1.2 before cooling to 22 °C and induction of protein expression using 0.4 mM IPTG. Cells were harvested at 16 to 20 h post-induction and pellets stored at −70 °C until required. Cells were resuspended in chilled lysis buffer (20 mM Tris pH 7.5, 20 mM imidazole, 500 mM NaCl, 1.4 mM β-mercaptoethanol 0.5 mM MgCl2 and 0.05% TWEEN-20 [plus 1 mM MnCl2 for PP1]) that was supplemented with 200 μl EDTA-free protease inhibitor cocktail (Merck) and 400 U bovine DNase I (Merck). Cells were lysed using a TS series cell disruptor (Constant Systems) at 24 kpsi and lysates were clarified (40,000×g, 30 min, 4 °C) before incubation with Ni-NTA agarose (Qiagen) for 1 h at 4 °C. The resin was washed with ≥20 column volumes of wash buffer (20 mM Tris, 20 mM imidazole and 500 mM NaCl [plus 1 mM MnCl2 for PP1]) at pH 7.5 (PP1γ and pORF38-NLT) or pH 8.5 (pUL21 and pUL21-RVxF). Protein was eluted using wash buffer supplemented with additional imidazole (final concentration 250 mM) and proteins were subjected to size-exclusions chromatography using HiLoad 16/600 Superdex 75 (PP1) or Superdex 200 (other) columns equilibrated in 20 mM Tris pH 8.5, 500 mM NaCl, 1 mM DTT (for pUL21 and pUL21-RVxF) or 50 mM HEPES pH 8.0, 500 mM NaCl, 0.5 mM TCEP (for PP1 and pORF38-NLT). Fractions were analysed by SDS-PAGE and those containing the desired protein were pooled, concentrated using centrifugal concentrators (Millipore) and stored at 4 °C (short-term) or snap-frozen in liquid nitrogen for long-term storage at −70 °C.
ITC experiments were performed using a MicroCal PEAQ-ITC automated calorimeter (Malvern Panalytical). The solvent (ITC buffer) was 50 mM HEPES pH 8.0, 500 mM NaCl, 0.5 mM TCEP. Lyophilized peptides were dissolved into ITC buffer and their concentration was estimated from dry mass. Proteins were diluted in ITC buffer, and their concentration was estimated from the theoretical extinction coefficient at 280 nm ([53]). […] Data were analyzed using MicroCal PEAQ-ITC analysis software (Malvern Panalytical) and fitted using a one-site binding model.
Table S1. Isothermal titration calorimetry (ITC) of PP1 with TROPPO-containing peptides and proteins. Data for independent experiments are shown. For all, the cell contained C-terminally His6-tagged mouse PP1γ (7–300). –, no binding detected.

[2] = target: T2, PP1γ catalytic domain : GADD34 peptide pre-formed complex (Mus musculus, UniProt P63087); assay: Competition fluorescence anisotropy, displacement of FITC-GADD34 peptide from PP1γ (HEPES pH 8.0); assay type: binding; settings: 2 nM fluorescent GADD34 peptide + 250 nM PP1γ; competitor at over 1000-fold molar excess; HEPES pH 8.0, 500 mM NaCl, 0.05% TWEEN-20; 27 °C
T2 construct: mouse PP1γ catalytic domain (residues 7–300)-H6; His6 (C); made in house; host or cells: E. coli T7 Express lysY/Iq (PP1γ); tracer peptide synthesised by GenScript
T2 sequence (P63087 7-300, one chain of several): as the sequence (P63087 7-300) above
Description: as §1
Peptides were commercially synthesised to >95% purity (GenScript) as follows: GADD34 RVxF+ϕϕ[xF] […]
Proteins were expressed using E. coli T7 Express lysY/I^q cells (New England Biolabs) grown in 2 × TY medium at 37 °C to OD600 0.8 to 1.2 before cooling to 22 °C and induction of protein expression using 0.4 mM IPTG. […] Fractions were analysed by SDS-PAGE and those containing the desired protein were pooled, concentrated using centrifugal concentrators (Millipore) and stored at 4 °C (short-term) or snap-frozen in liquid nitrogen for long-term storage at −70 °C.
Fluorescence anisotropy was measured using a SpectraMax i3 microplate reader (Molecular Devices) with wavelengths 485 ± 20 nm (excitation) and 535 ± 25 nm (emission). Samples (100 μl per well) were dispensed into low-bind black half-area 96-well microtitre plates (Corning) and fluorescence anisotropy was recorded at 27 °C. […]

endogenous PP1α = assay: GFP affinity capture / co-IP of endogenous PP1α with GFP-tagged bait; assay type: binding, human; settings: HEK 293T cells, 24 h post-transfection, GFP-Trap, immunoblot; representative of two independent experiments
Description: as §1, §2, §3, §4

[3] = independent experiment 1, syringe/cell µM: pUL21 1000/58.8, pORF38 1000/79.6
[4] = independent experiment 2, syringe/cell µM: pUL21 1000/54.5, pORF38 500/17.0

For C291R, the “PP1 regulatory protein binding” value (PP1 regulatory protein) is given as “severely decrease PP1 regulatory protein binding”, the “Co-IP of Myc-PP1 by pUL21-GFP” value (pUL21-GFP) is given as “profoundly less efficient than for WT Myc-PP1” and the “Abundance of Myc-PP1 in cell lysates” value (pUL21-GFP) is given as “lower abundance of these mutants in the cell lysates”. For the same molecule, the “Bound:input ratio of Myc-PP1 (effect of mutation)” value (shortened to “Bound:input ratio of Myc-PP1”) (pUL21-GFP) was “significantly disrupt binding to pUL21-GFP”.

For “AKRATVSEFVQVKHIDR [pUL21 TROPPO, pUL21 TROPPO peptide (residues 234–250)]”, the “ITC heats of TROPPO peptides against PP1 catalytic domain” value ([1]; 500–1000 μM peptide titrated, 50 mM HEPES pH 8.0, 500 mM NaCl, 0.5 mM TCEP, 25 °C) was “did not evolve heats above background levels”, the “-T∆S” value [1, 3] was “–” and the “N (sites)” value [1, 3] was “–”. For the same molecule, the “∆G” value [1, 3] was “–”, the “∆H” value [1, 3] was “–” and the KD [1, 3] was “–”. The “-T∆S” value [1, 4] was “–”, the “N (sites)” value [1, 4] was “–” and the “∆G” value [1, 4] was “–”. For the same molecule, the “∆H” value [1, 4] was “–”, the KD [1, 4] was “–” and the “Displacement of GADD34 peptide from PP1 by TROPPO peptides” value [2] was “Neither TROPPO-containing peptide was able to displace the GADD34 peptide”.

For L289R, the “PP1 regulatory protein binding” value (PP1 regulatory protein) is listed as “severely decrease PP1 regulatory protein binding”, the “Co-IP of Myc-PP1 by pUL21-GFP” value (pUL21-GFP) is listed as “profoundly less efficient than for WT Myc-PP1” and the “Abundance of Myc-PP1 in cell lysates” value (pUL21-GFP) is listed as “lower abundance of these mutants in the cell lysates”. The “Bound:input ratio of Myc-PP1” value (pUL21-GFP) was “significantly disrupt binding to pUL21-GFP”.

For F257A, the “PP1 regulatory protein binding” value (PP1 regulatory protein) is listed as “severely decrease PP1 regulatory protein binding”, the “Co-IP of Myc-PP1 by pUL21-GFP” value (pUL21-GFP) is listed as “profoundly less efficient than for WT Myc-PP1” and the “Abundance of Myc-PP1 in cell lysates” value (pUL21-GFP) is listed as “lower abundance of these mutants in the cell lysates”. For the same molecule, the “Bound:input ratio of Myc-PP1” value (pUL21-GFP) was “significantly disrupt binding to pUL21-GFP”.

B1: V239F (protein)
chain: MELSYATTMHYRDVVFYVTTDRNRAYFVCGGCVYSVGRPCASQPGEIAKFGLVVRGTGPDDRVVANYVRSELRQRGLQDVRPIGEDEVFLDSVCLLNPNVSSELDVINTNDVEVLDECLAEYCTSLRTSPGVLISGLRVRAQDRIIELFEHPTIVNVSSHFVYTPSPYVFALAQAHLPRLPSSLEALVSGLFDGIPAPRQPLDAHNPRTDVVITGRRAPRPIAGSGAGSGGAGAKRATFSEFVQVKHIDRVGPAGVSPAPPPNNTDSSSLVPGAQDSAPPGPTLRELWWVFYAADRALEEPRADSGLTREEVRAVRGFREQAWKLFGSAGAPRAFIGAALGLSPLQKLAVYYYIIHRERRLSPFPALVRLVGRYTQRHGLYVPRPDDPVLADAINGLFRDALAAGTTAEQLLMFDLLPPKDVPVGSDVQADSTALLRFIESQRLAVPGGVISPEHVAYLGAFLSVLYAGRGRMSAATHTARLTGVTSLVLAVGDVDRLSAFDRGAAGAASRTRAAGYLDVLLTVRLARSQHGQSV
modifications: left off: GFP (from the vector pEGFP-N1), end not stated, kept
With B1 the “Co-IP of endogenous PP1α” value (endogenous PP1α) was “co-precipitated more PP1α than did WT pUL21-GFP”.
